The values that follow come from ChEMBL document CHEMBL4043248, “Structure-activity relationship study of β-oxidation resistant indole-based 5-oxo-6,8,11,14-eicosatetraenoic acid (5-oxo-ETE) receptor antagonists” (Bioorg Med Chem Lett, 2017).

Chain of Oxoeicosanoid receptor 1 (Q8TDS5 whole entry): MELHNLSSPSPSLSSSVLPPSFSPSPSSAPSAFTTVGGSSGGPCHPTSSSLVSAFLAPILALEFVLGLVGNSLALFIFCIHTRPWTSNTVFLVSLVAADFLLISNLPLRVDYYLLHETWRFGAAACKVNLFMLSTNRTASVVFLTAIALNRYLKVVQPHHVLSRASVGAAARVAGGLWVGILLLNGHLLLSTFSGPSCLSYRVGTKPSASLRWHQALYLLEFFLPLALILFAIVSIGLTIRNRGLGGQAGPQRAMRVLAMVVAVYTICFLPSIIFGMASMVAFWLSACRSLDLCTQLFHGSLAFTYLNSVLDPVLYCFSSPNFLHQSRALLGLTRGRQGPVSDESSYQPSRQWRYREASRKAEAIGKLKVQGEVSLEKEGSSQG

This experiment has as its target Oxoeicosanoid receptor 1 (Homo sapiens, UniProt Q8TDS5). In words: Antagonist activity at OXE receptor in human neutrophils assessed as inhibition of 5-oxo-ETE-induced calcium mobilization incubated for 2 mins followed by 5-oxo-ETE addition measured after 1 min by fluorescence assay. Type of experiment: functional. (A change in cytosolic calcium serves as a functional read-out for many receptors and channels.)
The IC50 is the point on the concentration scale where inhibition reaches its midpoint. For the compound `CCCCCCc1c(C(=O)C[C@@H](C)CC(=O)O)c2cc(Cl)ccc2n1C`, the IC50 was 2700 nM.
In the case of `CCCCCCc1c(C(=O)CC(C)CC(=O)O)c2cc(Cl)ccc2n1C` (stereo unspecified), the IC50 lay within 16 to 20 nM.
The value for `CCCCCCc1c(C(=O)CC2(CC(=O)O)CCC2)c2cc(Cl)ccc2n1C` was 720 nM.
The value for `CCCCCCCCCCCc1c(C(=O)CC(C)CC(=O)O)c2cc(Cl)ccc2n1C` (stereo unspecified) was 23 nM; that for `CCCCCCc1c(C(=O)c2cccc(C(=O)O)c2)c2cc(Cl)ccc2n1C` was 1120 nM; that for `CCCCCCc1c(C(=O)CC(C)(C)CC(=O)O)c2cc(Cl)ccc2n1C` was 1330 nM.
The value for `CCCCCCc1c(C(=O)COCC(=O)O)c2cc(Cl)ccc2n1C` was 5500 nM; that for `CCCCCCc1c(C(=O)CC2(CC(=O)O)CC2)c2cc(Cl)ccc2n1C` was 580 nM; that for `CCCCCCc1c(C(=O)C(C)(C)CCC(=O)O)c2cc(Cl)ccc2n1C` was 8150 nM.
`CCCCCCc1c(C(=O)c2ccc(C(=O)O)cc2)c2cc(Cl)ccc2n1C`: the 50% inhibitory concentration (IC50) is 1360 nM.
The result for `CCCCCCc1c(C(=O)CCC(C)(C)C(=O)O)c2cc(Cl)ccc2n1C` reads 4060 nM.
